Our source for the Activity, inhibition and inhibition in vivo values is ChEMBL document CHEMBL4420080, “Inhibitors of sox18 protein activity for treating angiogenesis- and/or lymphangiogenesis-related diseases” (2018).

Data set [1] deals with Danio rerio. As to the kind of experiment: Induction of arterial and venous genes dys-regulation in zebrafish larvae harboring fli1 a:eGFP,-6.5kdrl:mCherry assessed as effect on prox1a gene expression at 1.5 uM dosed starting from 16 hpf and measured at 24 and 48 hpf by qRT-PCR analysis. The class given is functional, organism-based.
The species entered for data set [2] is Rattus norvegicus. The data set is described as follows: Inhibition of rat imidazoline I2 receptor at 10 uM relative to control.
Data set [3] deals with Protein c-Fos (Homo sapiens) (UniProt P01100). As to the kind of experiment: Inhibition of c-FOS in HUVEC assessed as reduction of c-FOS transcriptional activity by genome-wide RNA-seq and ChlP-seq analysis. In kind it is cell-based.
Sequence of Protein c-Fos (Homo sapiens) (P01100 whole entry): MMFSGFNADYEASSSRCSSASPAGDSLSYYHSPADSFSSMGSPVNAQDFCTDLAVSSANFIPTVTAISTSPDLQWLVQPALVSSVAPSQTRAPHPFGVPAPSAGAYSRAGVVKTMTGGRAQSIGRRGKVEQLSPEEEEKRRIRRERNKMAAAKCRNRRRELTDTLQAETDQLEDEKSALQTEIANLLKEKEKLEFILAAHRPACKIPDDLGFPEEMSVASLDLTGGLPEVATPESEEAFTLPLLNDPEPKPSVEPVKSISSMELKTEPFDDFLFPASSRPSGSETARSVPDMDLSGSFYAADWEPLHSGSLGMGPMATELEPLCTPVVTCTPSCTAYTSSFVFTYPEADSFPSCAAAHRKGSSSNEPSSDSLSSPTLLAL
For data set [4], the system named is 4T1.2. The data set is described as follows: Inhibition of tumor induced vascular response in mouse 4T1.2 cells implanted BALB/c mouse assessed as reduction in volume of the blood vessels in tumor region at 25 mg/kg/day for 10 days by ERG/EMCN-detection based immunofluorescent staining relative to control. The class given is functional. The settings on record: 4T1.2, 240 h.

In data set [5] the target is Prostaglandin E2 receptor EP4 subtype (Homo sapiens) (UniProt P35408). As to the kind of experiment: Inhibition of human EP4 receptor at 10 uM relative to control.
Sequence of Prostaglandin E2 receptor EP4 subtype (Homo sapiens) (P35408 whole entry): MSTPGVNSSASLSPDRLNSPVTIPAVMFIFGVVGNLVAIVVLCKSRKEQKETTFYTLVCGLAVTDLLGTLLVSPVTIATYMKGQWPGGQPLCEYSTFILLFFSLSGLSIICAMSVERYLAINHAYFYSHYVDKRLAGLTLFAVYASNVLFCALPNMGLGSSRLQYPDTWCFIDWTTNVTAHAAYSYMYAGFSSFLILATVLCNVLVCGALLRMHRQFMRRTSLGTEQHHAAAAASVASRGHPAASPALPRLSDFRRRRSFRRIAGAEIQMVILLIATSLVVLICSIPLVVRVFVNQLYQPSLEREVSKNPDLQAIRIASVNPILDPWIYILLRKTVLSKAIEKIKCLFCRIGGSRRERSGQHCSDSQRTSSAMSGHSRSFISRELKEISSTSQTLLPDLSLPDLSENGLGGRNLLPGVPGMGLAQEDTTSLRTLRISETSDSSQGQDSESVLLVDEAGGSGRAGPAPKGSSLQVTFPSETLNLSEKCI
Data set [6] concerns the target Muscarinic acetylcholine receptor M3 (Homo sapiens) (UniProt P20309). The data set is described as follows: Inhibition of human muscarinic M3 receptor at 10 uM relative to control.
Data set [7] addresses Neuronal acetylcholine receptor (Homo sapiens) (UniProt P17787+P30926+P32297+P43681+Q15822+Q9UGM1+Q15825+P30532+P36544+Q9GZZ6+Q05901). As to the kind of experiment: Inhibition of human nAChR at 10 uM relative to control.
In data set [8] the test system is Danio rerio. The data set is described as follows: Induction of vascular phenotype changes in zebrafish larvae harboring fli1 a:eGFP,-6.5kdrl:mCherry assessed as induction of posterior cardinal vein enlargement with arteriovenous shunts and incomplete trunk circulation at 1.5 uM dosed starting from 16 hpf. The class given is functional, organism-based.
The target of data set [9] is hERG (KCNH2) (Homo sapiens, UniProt Q12809). As to the kind of experiment: Inhibition of human ERG at 10 uM relative to control.
Sequence of hERG (KCNH2) (Q12809 whole entry): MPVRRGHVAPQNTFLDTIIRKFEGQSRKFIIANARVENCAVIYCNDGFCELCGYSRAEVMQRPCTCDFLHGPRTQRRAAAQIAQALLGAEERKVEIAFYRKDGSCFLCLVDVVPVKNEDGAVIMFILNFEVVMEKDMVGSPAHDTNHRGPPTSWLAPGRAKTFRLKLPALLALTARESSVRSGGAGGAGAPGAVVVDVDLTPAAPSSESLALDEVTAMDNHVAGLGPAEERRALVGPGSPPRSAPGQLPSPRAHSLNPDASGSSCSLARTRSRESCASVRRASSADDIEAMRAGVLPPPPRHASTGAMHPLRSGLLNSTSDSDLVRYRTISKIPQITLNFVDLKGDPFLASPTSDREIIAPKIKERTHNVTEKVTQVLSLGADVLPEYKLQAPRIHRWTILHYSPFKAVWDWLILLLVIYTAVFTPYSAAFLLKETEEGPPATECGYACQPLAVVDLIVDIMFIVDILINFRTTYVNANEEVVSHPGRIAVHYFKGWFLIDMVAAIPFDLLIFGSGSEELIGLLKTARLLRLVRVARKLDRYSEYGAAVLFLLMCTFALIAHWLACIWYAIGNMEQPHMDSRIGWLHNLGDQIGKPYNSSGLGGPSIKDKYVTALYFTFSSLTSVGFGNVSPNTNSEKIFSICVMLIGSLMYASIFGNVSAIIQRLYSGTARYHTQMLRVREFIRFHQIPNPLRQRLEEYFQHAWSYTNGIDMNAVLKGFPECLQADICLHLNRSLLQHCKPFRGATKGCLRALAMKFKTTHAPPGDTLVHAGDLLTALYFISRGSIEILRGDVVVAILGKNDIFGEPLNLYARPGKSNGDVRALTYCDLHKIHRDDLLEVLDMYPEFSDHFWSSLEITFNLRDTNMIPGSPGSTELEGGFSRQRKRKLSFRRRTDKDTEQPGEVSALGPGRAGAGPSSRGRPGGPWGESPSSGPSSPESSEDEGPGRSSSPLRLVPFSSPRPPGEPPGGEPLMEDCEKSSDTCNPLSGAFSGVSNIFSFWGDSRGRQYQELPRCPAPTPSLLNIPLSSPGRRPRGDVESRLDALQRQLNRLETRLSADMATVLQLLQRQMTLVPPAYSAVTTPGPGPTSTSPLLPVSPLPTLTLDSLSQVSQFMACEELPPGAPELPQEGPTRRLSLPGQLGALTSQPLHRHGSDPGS
Data set [10] addresses GABA-A receptor; anion channel (Rattus norvegicus) (UniProt O09028+P15431+P18506+P18508+P19969+P20236+P23574+P23576+P28471+P28473+P30191+P62813+P63079+P63138+Q91ZM7+Q9ES14). As to the kind of experiment: Inhibition of rat GABAA channel flunitrazepam binding site at 10 uM relative to control. The class given is protein-complex assay.
The target of data set [11] is Transcription factor Jun (Homo sapiens) (UniProt P05412). The data set is described as follows: Inhibition of c-JUN in HUVEC assessed as reduction of c-JUN transcriptional activity by genome-wide RNA-seq and ChlP-seq analysis. The class given is cell-based.
Sequence of Transcription factor Jun (Homo sapiens) (P05412 whole entry): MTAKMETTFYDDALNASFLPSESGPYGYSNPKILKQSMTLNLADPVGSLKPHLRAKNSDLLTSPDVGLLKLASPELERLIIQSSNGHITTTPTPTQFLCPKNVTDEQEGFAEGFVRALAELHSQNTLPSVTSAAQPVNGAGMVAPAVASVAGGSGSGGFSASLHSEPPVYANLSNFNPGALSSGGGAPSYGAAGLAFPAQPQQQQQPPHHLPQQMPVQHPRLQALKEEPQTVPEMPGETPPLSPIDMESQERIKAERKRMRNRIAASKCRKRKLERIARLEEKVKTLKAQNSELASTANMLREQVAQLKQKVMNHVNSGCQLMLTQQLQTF

Molecules are shown by their SMILES. Activity calls are given as the source filed them. No cut-off for these calls is given here.

Sequence of Muscarinic acetylcholine receptor M3 (Homo sapiens) (P20309 whole entry, looked up): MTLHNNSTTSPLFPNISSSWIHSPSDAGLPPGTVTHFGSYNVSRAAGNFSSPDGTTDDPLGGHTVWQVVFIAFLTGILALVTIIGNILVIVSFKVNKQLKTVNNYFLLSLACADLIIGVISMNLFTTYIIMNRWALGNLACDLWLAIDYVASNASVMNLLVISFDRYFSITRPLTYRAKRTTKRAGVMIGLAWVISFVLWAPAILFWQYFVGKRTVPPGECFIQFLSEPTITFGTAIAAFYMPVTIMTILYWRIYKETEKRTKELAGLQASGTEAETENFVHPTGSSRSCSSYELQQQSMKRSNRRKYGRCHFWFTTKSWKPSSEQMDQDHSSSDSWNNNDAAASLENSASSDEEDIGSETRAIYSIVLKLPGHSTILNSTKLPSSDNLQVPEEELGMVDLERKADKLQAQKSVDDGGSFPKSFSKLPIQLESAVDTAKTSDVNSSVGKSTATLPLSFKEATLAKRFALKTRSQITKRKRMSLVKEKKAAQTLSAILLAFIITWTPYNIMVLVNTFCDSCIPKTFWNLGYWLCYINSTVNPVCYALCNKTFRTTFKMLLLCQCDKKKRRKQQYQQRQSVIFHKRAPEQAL

Consider `O=C(O)c1c(O)cccc1CCc1ccc2ccccc2c1`, for which the result in data set [1] and in data set [8] was Active. The inhibition (as a rule, the relative decrease from the control value, in per cent) in data set [2] is 11%; in data set [5], 27%; in data set [6], 8%; in [7] it was 3%; in data set [10] it was -6%. Besides, the inhibition result in [3] and in data set [11] was “inactive” throughout. In addition, in data set [4], the inhibition in vivo (as a rule, the percentage by which the read-out fell short of the control) at 25 mg/kg/day is 55%. Besides, the inhibition at 10 µM in [9] was -14%.
